From patent US8952024B2, “Herbicidal pyrimidone derivatives” (E I du Pont de Nemours and Company, priority 2009, dated 2015)

What was measured:
Format in all cases: in vivo
[1] = tested on: velvetleaf (Abutilon theophrasti); assay: Test B pre-/postemergence plant response; conditions: for Velvetleaf plant response rating (0 to 100 scale): 62 g ai/ha, 0 is no effect, 13 to 15 days
Summary of the method: (§1)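 Ratings reflect visual comparison with untreated controls 13 to 15 days after application, from 0 (no effect) to 100 (complete control). Application was preemergence to seeded loam/sand soil or postemergence to 1- to 4-leaf plants, with compound in a non-phytotoxic, surfactant-containing solvent.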

[2] = tested on: ragweed (common ragweed, Ambrosia elatior); assay: Test B pre-/postemergence plant response; conditions: for Ragweed plant response rating (0 to 100 scale): 62 g ai/ha, 0 is no effect, 13 to 15 days
Summary of the method: as §1

kochia (Kochia scoparia) = assay: Test B pre-/postemergence plant response; conditions: for Kochia plant response rating (0 to 100 scale): 62 g ai/ha, 0 is no effect, 13 to 15 days
Summary of the method: as §1

[3] = tested on: johnsongrass (Sorghum halepense); assay: Test B pre-/postemergence plant response; conditions: for Johnsongrass plant response rating (0 to 100 scale): 62 g ai/ha, 0 is no effect, 13 to 15 days
Summary of the method: as §1

soybean (Glycine max) = assay: Test B pre-/postemergence plant response; conditions: for Soybean plant response rating (0 to 100 scale): 62 g ai/ha, 0 is no effect, 13 to 15 days
Summary of the method: as §1

[4] = tested on: cocklebur (Xanthium strumarium); assay: Test B pre-/postemergence plant response; conditions: for Cocklebur plant response rating (0 to 100 scale): 62 g ai/ha, 0 is no effect, 13 to 15 days
Summary of the method: as §1

wild oat (Avena fatua) = assay: Test B pre-/postemergence plant response; conditions: for Oat, Wild plant response rating (0 to 100 scale): 62 g ai/ha, 0 is no effect, 13 to 15 days
Summary of the method: as §1

[5] = tested on: goosegrass (Eleusine indica); assay: Test B pre-/postemergence plant response; conditions: for Goosegrass plant response rating (0 to 100 scale): 62 g ai/ha, 0 is no effect, 13 to 15 days
Summary of the method: as §1

[6] = tested on: pigweed (Amaranthus retroflexus); assay: Test B pre-/postemergence plant response; conditions: for Pigweed plant response rating (0 to 100 scale): 62 g ai/ha, 0 is no effect, 13 to 15 days
Summary of the method: as §1

[7] = tested on: wheat (Triticum aestivum); assay: Test B pre-/postemergence plant response; conditions: for Wheat plant response rating (0 to 100 scale): 62 g ai/ha, 0 is no effect, 13 to 15 days
Summary of the method: as §1

[8] = tested on: canarygrass (Phalaris minor); assay: Test B postemergence plant response; conditions: for Canarygrass plant response rating (0 to 100 scale): 62 g ai/ha, 0 is no effect, 13 to 15 days
Summary of the method: (§2)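 Plants at the 1- to 4-leaf stage (2 to 18 cm tall), grown in pots of peat moss/vermiculite medium with wetting agent and starter nutrients, received postemergence applications of test chemicals. After 13 to 15 days in a greenhouse, injury was rated visually against untreated controls on a 0 (no effect) to 100 (complete control) scale.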

[9] = tested on: windgrass (Apera spica-venti); assay: Test B postemergence plant response; conditions: for Windgrass plant response rating (0 to 100 scale): 62 g ai/ha, 0 is no effect, 13 to 15 days
Summary of the method: as §2

[10] = tested on: chickweed (Stellaria media); assay: Test B postemergence plant response; conditions: for Chickweed plant response rating (0 to 100 scale): 62 g ai/ha, 0 is no effect, 13 to 15 days
Summary of the method: as §2

[11] = 31 g ai/ha, postemergence, scale 0 to 100, 0 is no effect, 100 is complete control
[12] = postemergence, 100 is complete control
[13] = Postemergence, 250 g ai/ha, scale 0 to 100 (0 no effect, 100 complete control)
[14] = Postemergence, 125 g ai/ha, visual rating after 13 to 15 days, scale 0 (no effect) to 100 (complete control)
[15] = Postemergence, 125 g ai/ha, scale 0 to 100 (0 no effect, 100 complete control)

In the case of `CCCCCn1c(-c2ccccc2)ncc(C(=O)C2=C(O)CCCC2=O)c1=O` [Compound 89], the “Plant response rating, Velvetleaf” value [1, 11] was 90, the “Velvetleaf plant response rating (0 to 100 scale)” value (from here on “Velvetleaf plant response rating”) [1, 12] was 95 and the “Plant response rating, Velvetleaf” value [1, 13] was 100. The “Plant response rating, Ragweed” value [2, 11] was 70, the “Ragweed plant response rating (0 to 100 scale)” value (shortened to “Ragweed plant response rating”) [2, 12] was 85 and the “Plant response rating, Ragweed” value [2, 13] was 100. For the same molecule, the “Plant response rating, Kochia” value (kochia (Kochia scoparia); [11]) was 65, the “Kochia plant response rating (0 to 100 scale)” value (“Kochia plant response rating” for short) (kochia (Kochia scoparia); [12]) was 75 and the “Plant response rating, Kochia” value (kochia (Kochia scoparia); [13]) was 100. The “Plant response rating, Johnsongrass” value [3, 11] was 25, the “Johnsongrass plant response rating (0 to 100 scale)” value (shortened to “Johnsongrass plant response rating”) [3, 12] was 90 and the “Plant response rating, Johnsongrass” value [3, 13] was 100. The “Plant response rating, Soybean” value (soybean (Glycine max); [11]) was 90, the “Soybean plant response rating (0 to 100 scale)” value (from here on “Soybean plant response rating”) (soybean (Glycine max); [12]) was 90 and the “Plant response rating, Soybean” value (soybean (Glycine max); [13]) was 98. For the same molecule, the “Plant response rating, Cocklebur” value [4, 11] was 10, the “Cocklebur plant response rating (0 to 100 scale)” value (“Cocklebur plant response rating” below) [4, 12] was 60 and the “Plant response rating, Cocklebur” value [4, 14] was 65. For the same molecule, the “Plant response rating, Cocklebur” value [4, 13] was 70, the “Plant response rating, Oat, Wild” value (wild oat (Avena fatua); [11]) was 10 and the “Oat, Wild plant response rating (0 to 100 scale)” value (“Oat, Wild plant response rating” for short) (wild oat (Avena fatua); [12]) was 10. For the same molecule, the “Plant response rating, Oat, Wild” value (wild oat (Avena fatua); [13]) was 50, the “Plant response rating, Goosegrass” value [5, 11] was 55 and the “Goosegrass plant response rating (0 to 100 scale)” value (from here on “Goosegrass plant response rating”) [5, 12] was 65. For the same molecule, the “Plant response rating, Goosegrass” value [5, 13] was 80, the “Plant response rating, Pigweed” value [6, 11] was 80 and the “Pigweed plant response rating (0 to 100 scale)” value (shortened to “Pigweed plant response rating”) [6, 12] was 98. The “Plant response rating, Pigweed” value [6, 13] was 100, the “Plant response rating, Wheat” value [7, 11] was 0 and the “Wheat plant response rating (0 to 100 scale)” value (“Wheat plant response rating” for short) [7, 12] was 5. The “Plant response rating, Wheat” value [7, 13] was 10, the “Plant response rating, Canarygrass” value [8, 11] was 10 and the “Canarygrass plant response rating (0 to 100 scale)” value (from here on “Canarygrass plant response rating”) [8, 12] was 35. For the same molecule, the “Plant response rating, Canarygrass” value [8, 14] was 50, the “Plant response rating, Canarygrass” value [8, 13] was 60 and the “Plant response rating, Windgrass” value [9, 11] was 0. The “Windgrass plant response rating (0 to 100 scale)” value (“Windgrass plant response rating” below) [9, 12] was 5, the “Plant response rating, Windgrass” value [9, 13] was 50 and the “Plant response rating, Chickweed” value [10, 11] was 75. For the same molecule, the “Chickweed plant response rating (0 to 100 scale)” value (“Chickweed plant response rating” for short) [10, 12] was 80, the “Plant response rating, Chickweed” value [10, 14] was 98 and the “Plant response rating, Chickweed” value [10, 13] was 98.
With `CC(C)n1c(-c2ccccc2)ncc(C(=O)C2=C(O)CCCC2=O)c1=O` [Compound 95] the “Plant response rating, Velvetleaf” value [1, 11] was 85, the “Velvetleaf plant response rating” value [1, 12] was 95 and the “Plant response rating, Velvetleaf” value [1, 13] was 100. The “Plant response rating, Ragweed” value [2, 11] was 75, the “Ragweed plant response rating” value [2, 12] was 80 and the “Plant response rating, Ragweed” value [2, 13] was 95. The “Plant response rating, Kochia” value (kochia (Kochia scoparia); [11]) was 80, the “Kochia plant response rating” value (kochia (Kochia scoparia); [12]) was 100 and the “Plant response rating, Kochia” value (kochia (Kochia scoparia); [13]) was 100. For the same molecule, the “Plant response rating, Johnsongrass” value [3, 11] was 5, the “Johnsongrass plant response rating” value [3, 12] was 10 and the “Plant response rating, Johnsongrass” value [3, 13] was 45. The “Plant response rating, Soybean” value (soybean (Glycine max); [11]) was 95, the “Soybean plant response rating” value (soybean (Glycine max); [12]) was 98 and the “Plant response rating, Soybean” value (soybean (Glycine max); [13]) was 98. For the same molecule, the “Plant response rating, Cocklebur” value [4, 11] was 70, the “Cocklebur plant response rating” value [4, 12] was 95 and the “Plant response rating, Cocklebur” value [4, 14] was 100. For the same molecule, the “Plant response rating, Cocklebur” value [4, 13] was 100, the “Plant response rating, Oat, Wild” value (wild oat (Avena fatua); [11]) was 0 and the “Oat, Wild plant response rating” value (wild oat (Avena fatua); [12]) was 0. The “Plant response rating, Oat, Wild” value (wild oat (Avena fatua); [13]) was 0, the “Plant response rating, Goosegrass” value [5, 11] was 65 and the “Goosegrass plant response rating” value [5, 12] was 75. For the same molecule, the “Plant response rating, Goosegrass” value [5, 13] was 90, the “Plant response rating, Pigweed” value [6, 11] was 85 and the “Pigweed plant response rating” value [6, 12] was 98. The “Plant response rating, Pigweed” value [6, 13] was 100, the “Plant response rating, Wheat” value [7, 11] was 0 and the “Wheat plant response rating” value [7, 12] was 0. For the same molecule, the “Plant response rating, Wheat” value [7, 13] was 0, the “Plant response rating, Canarygrass” value [8, 11] was 0 and the “Canarygrass plant response rating” value [8, 12] was 0. The “Plant response rating, Canarygrass” value [8, 14] was 0, the “Plant response rating, Canarygrass” value [8, 13] was 0 and the “Plant response rating, Windgrass” value [9, 11] was 0. For the same molecule, the “Windgrass plant response rating” value [9, 12] was 0, the “Plant response rating, Windgrass” value [9, 13] was 0 and the “Plant response rating, Chickweed” value [10, 11] was 75. For the same molecule, the “Chickweed plant response rating” value [10, 12] was 85, the “Plant response rating, Chickweed” value [10, 14] was 98 and the “Plant response rating, Chickweed” value [10, 13] was 100.
For `CCCn1c(-c2ccc(F)cc2)ncc(C(=O)C2=C(O)CCCC2=O)c1=O` [Compound 102], the “Velvetleaf plant response rating” value [1, 12] was 100, the “Plant response rating, Velvetleaf” value [1, 15] was 100 and the “Plant response rating, Velvetleaf” value [1, 13] was 100. The “Ragweed plant response rating” value [2, 12] was 80, the “Plant response rating, Ragweed” value [2, 15] was 85 and the “Plant response rating, Ragweed” value [2, 13] was 95. The “Plant response rating, Kochia” value (kochia (Kochia scoparia); [11]) was 65, the “Kochia plant response rating” value (kochia (Kochia scoparia); [12]) was 70 and the “Plant response rating, Kochia” value (kochia (Kochia scoparia); [15]) was 100. The “Plant response rating, Kochia” value (kochia (Kochia scoparia); [13]) was 100, the “Plant response rating, Johnsongrass” value [3, 11] was 20 and the “Johnsongrass plant response rating” value [3, 12] was 25. The “Plant response rating, Johnsongrass” value [3, 15] was 60, the “Plant response rating, Johnsongrass” value [3, 13] was 75 and the “Soybean plant response rating” value (soybean (Glycine max); [12]) was 85. The “Plant response rating, Soybean” value (soybean (Glycine max); [15]) was 95, the “Plant response rating, Soybean” value (soybean (Glycine max); [13]) was 100 and the “Plant response rating, Cocklebur” value [4, 11] was 90. The “Cocklebur plant response rating” value [4, 12] was 95, the “Plant response rating, Cocklebur” value [4, 15] was 100 and the “Plant response rating, Cocklebur” value [4, 13] was 100. For the same molecule, the “Plant response rating, Oat, Wild” value (wild oat (Avena fatua); [11]) was 5, the “Oat, Wild plant response rating” value (wild oat (Avena fatua); [12]) was 15 and the “Plant response rating, Oat, Wild” value (wild oat (Avena fatua); [15]) was 40. For the same molecule, the “Plant response rating, Oat, Wild” value (wild oat (Avena fatua); [13]) was 80, the “Plant response rating, Goosegrass” value [5, 11] was 55 and the “Goosegrass plant response rating” value [5, 12] was 70. For the same molecule, the “Plant response rating, Goosegrass” value [5, 15] was 80, the “Plant response rating, Goosegrass” value [5, 13] was 90 and the “Plant response rating, Pigweed” value [6, 11] was 70. The “Pigweed plant response rating” value [6, 12] was 70, the “Plant response rating, Pigweed” value [6, 15] was 95 and the “Plant response rating, Pigweed” value [6, 13] was 98. The “Wheat plant response rating” value [7, 12] was 10, the “Plant response rating, Wheat” value [7, 15] was 20 and the “Plant response rating, Canarygrass” value [8, 11] was 5. The “Canarygrass plant response rating” value [8, 12] was 20, the “Plant response rating, Canarygrass” value [8, 15] was 30 and the “Plant response rating, Canarygrass” value [8, 13] was 50. For the same molecule, the “Windgrass plant response rating” value [9, 12] was 10, the “Plant response rating, Windgrass” value [9, 15] was 60 and the “Plant response rating, Chickweed” value [10, 11] was 60. The “Chickweed plant response rating” value [10, 12] was 80, the “Plant response rating, Chickweed” value [10, 15] was 95 and the “Plant response rating, Chickweed” value [10, 13] was 100.
